Measured values published in patent publication US9605027B2, “Polypeptides that bound to IL-23 receptor and inhibit binding of IL-23 and cell signaling thereof” (Medical Diagnostic Laboratories, LLC, priority 2011, dated 2017).
pIC50: −log10 of the molar value. Entries after “also recorded” stand apart in the source; their conditions may differ. Like-named read-outs stand apart in the source and are kept apart here. Peptide text beside a SMILES is read from it.

Molecular target: IL-23R pathway in STAT3-Luc reporter DB cells (Homo sapiens, UniProt Q5VWK5)
Sequence (Q5VWK5 24-629 limits assumed): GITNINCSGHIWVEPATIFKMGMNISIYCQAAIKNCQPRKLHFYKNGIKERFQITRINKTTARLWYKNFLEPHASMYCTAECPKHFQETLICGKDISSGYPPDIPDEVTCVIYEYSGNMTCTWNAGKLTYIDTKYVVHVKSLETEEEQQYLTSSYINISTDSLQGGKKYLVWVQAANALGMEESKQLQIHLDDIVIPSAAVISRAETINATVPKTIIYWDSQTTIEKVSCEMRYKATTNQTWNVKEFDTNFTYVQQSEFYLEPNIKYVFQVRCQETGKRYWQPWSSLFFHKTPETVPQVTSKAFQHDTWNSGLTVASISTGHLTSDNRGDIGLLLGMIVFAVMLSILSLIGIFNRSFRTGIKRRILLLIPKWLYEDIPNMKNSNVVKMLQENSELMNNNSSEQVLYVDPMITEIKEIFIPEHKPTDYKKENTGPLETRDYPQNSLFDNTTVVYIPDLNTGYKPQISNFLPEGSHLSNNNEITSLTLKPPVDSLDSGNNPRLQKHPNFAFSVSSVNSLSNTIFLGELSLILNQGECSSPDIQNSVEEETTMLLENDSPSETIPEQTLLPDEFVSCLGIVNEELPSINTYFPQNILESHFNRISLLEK
Assay: Cell-based STAT3-Luc reporter DB cell assay (DB-Luc), inhibition of IL-23
Procedure: (§1) The Cignal STAT3 reporter (SA Biosciences, CCS-9028L), designed to measure the transcriptional activity of STAT3 homodimers, was transiently transfected into the DB cells. The stably transfected STAT3-Luc reporter clone was selected using 200 ng/ml of Hygromycin B.
The stably transfected STAT3-Luc reporter DB cells (0.5×10^6) were cultured in 100 μl of RPMI+10% FBS. IL-23 was added to the cells and incubated at 37° C. for 4 hours. Luciferase activity was measured using Dual-Glo luciferase assay system (Promega).
The isolated cyclic polypeptide no. 23.15-Fc fusion protein and cyclic polypeptide no. 23.19 were used in a cell-based assay to measure the IC50 values. The stably transfected STAT3-Luc reporter DB cells (0.5×10^6) were cultured in 100 μl of RPMI+10% FBS. The cells were pre-incubated with different concentration of isolated cyclic polypeptide no. 23.15-Fc fusion protein or polypeptide no. 23.19 for 30 minutes at 37° C. 50 ng/ml of IL-23 was added to the cells and incubated at 37° C. for an additional 4 hours. Luciferase activity was measured using Dual-Glo luciferase assay system (Promega). The IC50 values of isolated cyclic polypeptide no. 23.15-Fc fusion protein and cyclic polypeptide no. 23.19 are 2.5 μM and 2.5 μM respectively.
The isolated peptide no. 7 (SEQ ID NO: 156) and peptide no. 23.19 (SEQ ID NO: 130) (it is a cyclic version of the polypeptide no. 23.15) were used in a cell based assay to compare their inhibitory activity. The stably transfected STAT3-Luc reporter DB cells (0.5×10^6) were cultured in 100 μl of RPMI+10% FBS. The cells were pre-incubated with two different concentrations (10 μM and 2 μM) of isolated peptides for 30 minutes at 37° C. 50 ng/ml of IL-23 was added to the cells and incubated at 37° C. for an additional 4 hours. Luciferase activity was measured using Dual-Glo luciferase assay system (Promega). The inhibitory activity of isolated peptide no. 7 (SEQ ID NO: 156) is better than that of peptide no. 23.19 (SEQ ID NO: 130) (a cyclic version of polypeptide no. 23.15 (SEQ ID NO: 126) (See, FIG. 62).
DB cells express IL-23R on the cell surface. In addition, IL-23 stimulated the DB cells through the activation of STAT3 by phosphorylation (p-STAT3) (Example 7 (Figures. 14 and 15)). Based on these observations, DB cells were used to develop a cell-based assay to measure the inhibitory activity of peptide and peptide-Fc fusion protein in the IL-23R pathway. […]
as §1, with “CCS-9028L), which is” for “CCS-9028L),”, “B. The activity of IL-23R pathway can be measured by the transcriptional activity of STAT3 homodimers. […]” for “B.”

| pIC50 (procedure of Example 29, read-out: IC50, cell-based DB-Luc assay) | pIC50 (50 ng/ml IL-23, 4 hours, read-out: IC50, cell-based STAT3-Luc assay) | SMILES | inhibitory activity in cell-based DB-Luc assay (cyclic vs linear peptides) |
| --- | --- | --- | --- |
| 6.47 |  | CSCC[C@@H]1NC(=O)[C@H](CCCCN)NC(=O)[C@H](C)NC(=O)[C@H](C)NC(=O)[C@H](CS)NC(=O)[C@H](CC(N)=O)NC(=O)[C@H](CCCCN)NC(=O)[C@H](CC(C)C)NC(=O)[C@H](Cc2c[nH]c3ccccc23)NC(=O)[C@H](Cc2ccc(O)cc2)NC(=O)[C@H](CC(=O)O)NC(=O)[C@H](C(C)C)NC(=O)[C@H](Cc2c[nH]c3ccccc23)NC(=O)[C@H]([C@@H](C)O)NC1=O [2HT AA] (cyclo(AAKMTWVDYWLKNC)) | did not eliminate the inhibitory activity; also recorded: best inhibitory activity |
|  | 5.60 | CSCC[C@@H]1NC(=O)[C@H](C)NC(=O)[C@@H](N)CSSC[C@@H](C(=O)O)NC(=O)[C@H](CCCNC(=N)N)NC(=O)CNC(=O)[C@H](Cc2ccc(O)cc2)NC(=O)[C@H](CC(C)C)NC(=O)[C@H](Cc2c[nH]c3ccccc23)NC(=O)[C@H](Cc2ccc(O)cc2)NC(=O)[C@H](CC(=O)O)NC(=O)[C@H](CCC(N)=O)NC(=O)[C@H](Cc2c[nH]c3ccccc23)NC(=O)[C@H]([C@@H](C)O)NC1=O [23.19] |  |
